Biological target: human P2X7 receptor (Homo sapiens, UniProt Q99572, R270H/Y155H)
Experiment: Evaluation of human P2X7 receptor inhibitory activity (Yo-Pro uptake, BzATP stimulation, FLIPR TETRA)
Type: cell-based
Details: 1321N1 cells stably expressing human P2X7 receptor; BzATP stimulation, Yo-Pro uptake; read-out: IC50 (antagonistic activity for the human P2X7 receptor)
Method in brief: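 1321N1 cells stably expressing human P2X7 (T606C/G952A SNP variant), in HBSS buffer pH 7.4-7.5 with Yo-Pro, stimulated with BzATP; compound added 8 min after agonist. Fluorescence followed for 20 min on FLIPR; max-minus-min change gave % inhibition, IC50 by logistic fit.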

In order of rising IC50:
1. COc1cn(Cc2ccc(F)c(F)c2)c(Nc2cccc(OC(F)F)c2C)nc1=O [Compound I-0480]  4 nM
2. O=c1nc(Nc2cccc3c(=O)[nH]ccc23)n(Cc2cc(F)cc(F)c2)cc1F [Compound I-0703]  16 nM
3. COc1cn(Cc2cc(F)c(F)cc2F)c(Nc2cccc(Cl)c2C)nc1=O [Compound I-0347]  20 nM
4. CCc1cc2c(cc1Nc1nc(=O)c(OC)cn1Cc1ccccc1F)CCC2 [Compound I-0178]  21 nM
5. COc1cn(Cc2ccc(F)c(Cl)c2)c(Nc2cc3c(cc2C)OCCC3)nc1=O [Compound I-0914]  22 nM
6. Cc1c(Cl)cccc1Nc1nc(=O)c(OCc2ccccc2)cn1Cc1ccccc1 [Compound I-0149]  26 nM
7. COc1cn(Cc2ccccc2)c(Nc2cncc(Cl)c2C)nc1=O [Compound I-0185]  270 nM
8. COc1cnc(Nc2cccc(Cl)c2C)n(Cc2ccccc2)c1=O [Compound I-0967]  450 nM

Same assay, conditions: 1321N1 cells stably expressing human P2X7 receptor; BzATP stimulation, Yo-Pro uptake; read-out: IC50 (antagonistic activity for the human P2X7 receptor), class symbol

First: COc1cn(Cc2cc(F)cc(F)c2)c(Nc2cccc(C(F)(F)F)c2C)nc1=O [Compound I-0470]
Second: COc1cn(Cc2cc(F)cc(F)c2)c(Nc2cccc(Cl)c2C)nc1=O [Compound I-0002]
The IC50 of the first is higher: 10 to 100 nM for the first, less than 10 nM for the second.

First: COc1cn(Cc2ccc(F)cc2)c(Nc2cccc(C)c2C)nc1=O [Compound I-0141]
Second: COc1cn(Cc2cc(F)c(F)c(F)c2)c(Nc2cccc(C)c2C)nc1=O [Compound I-0569]
The IC50 of the first is higher: 10 to 100 nM for the first, less than 10 nM for the second.

First: Cc1c(Cl)cccc1Nc1nc(=O)c(C)cn1Cc1ccccc1 [Compound I-0012]
Second: Cc1c(Cl)cccc1Nc1nc(=O)c(CC(=O)N(C)C)cn1Cc1ccccc1 [Compound I-0331]
The IC50 of the first is lower: 10 to 100 nM for the first, 100 to 500 nM for the second.

First: COc1cn(Cc2ccccc2)c(Nc2cc(C(C)C)ccc2C)nc1=O [Compound I-0143]
Second: COc1cn(Cc2ccccc2)c(Nc2cc(CO)c(C)cc2C)nc1=O [Compound I-0278]
The IC50 of the first is higher: 10 to 100 nM for the first, less than 10 nM for the second. The second is the more potent here.

`COc1cn(Cc2cc(F)cc(F)c2)c(Nc2cccc(C)c2Cl)nc1=O` [Compound I-0505] and `COc1cn(Cc2cc(F)cc(F)c2)c(Nc2cccc(OC(C)C)c2C)nc1=O` [Compound I-0514] fall in the same range of IC50: 10 to 100 nM for the first, 10 to 100 nM for the second.

First: Cc1c(Cl)cccc1Nc1nc(=O)c(OCC(F)(F)F)cn1Cc1ccccc1 [Compound I-0016]
Second: Cc1c(Cl)cccc1Nc1nc(=O)c(CC(=O)NCCO)cn1Cc1ccccc1 [Compound I-0337]
The IC50 of the first is lower: 10 to 100 nM for the first, 100 to 500 nM for the second. The first is the more potent here.

`COc1cn(Cc2cc(F)cc(F)c2)c(Nc2cc(C)c(C)cc2C)nc1=O` [Compound I-0377] and `COc1cc(C)c(Nc2nc(=O)c(OC)cn2Cc2cc(F)cc(F)c2)cc1OC` [Compound I-0439] cannot be ordered by IC50: less than 10 nM for the first, less than 10 nM for the second.

Compared with `COc1cn(Cc2cccc(Cl)c2)c(Nc2cc(C)c(OC(F)F)cc2C)nc1=O` [Compound I-0299], `COc1cn(Cc2ccc(F)c(Cl)c2)c(Nc2cc(C)c(C)cc2C)nc1=O` [Compound I-0243] is lower in IC50: 10 to 100 nM for the first, less than 10 nM for the second. The second is the more potent here.

First: Cc1cc(C)c(Nc2nc(=O)c(C(=O)NCC(=O)N(C)C)cn2Cc2ccccc2)cc1C [Compound I-0226]
Second: CCc1cc2c(cc1Nc1nc(=O)c(OC)cn1Cc1ccccc1)CCC2 [Compound I-0116]
The IC50 of the first is higher: 10 to 100 nM for the first, less than 10 nM for the second. The second is the more potent here.

`COc1cc(Nc2nc(=O)c(OC)cn2Cc2ccc(F)c(F)c2)c(C)cc1Cl` [Compound I-0535] and `COc1cn(Cc2cc(F)c(F)c(F)c2)c(Nc2cc(C)c(Cl)cc2C)nc1=O` [Compound I-0575] cannot be ordered by IC50: less than 10 nM for the first, less than 10 nM for the second.

`CCc1cc(OC)c(OC)cc1Nc1nc(=O)c(OC)cn1Cc1cccc(F)c1` [Compound I-0269] and `CCc1cc2c(cc1Nc1nc(=O)c(OC)cn1Cc1cccc(F)c1)CCC2` [Compound I-0179] cannot be ordered by IC50: less than 10 nM for the first, less than 10 nM for the second.

Compared with `Cc1c(Cl)cccc1Nc1nc(=O)c(F)cn1Cc1ccc(F)c(F)c1` [Compound I-0471], `COc1cn(Cc2ccc(F)c(Cl)c2)c(Nc2cc(S(C)(=O)=O)ccc2C)nc1=O` [Compound I-0547] is higher in IC50: less than 10 nM for the first, 10 to 100 nM for the second.

First: CCc1ccccc1Nc1nc(=O)c(Br)cn1Cc1ccccc1 [Compound I-0107]
Second: COc1cn(Cc2ccccc2)c(Nc2cc(Cl)cc(Cl)c2Cl)nc1=O [Compound I-0145]
The IC50 of the first is higher: 100 to 500 nM for the first, 10 to 100 nM for the second. The second is the more potent here.

`COc1cn(Cc2cccc(Cl)c2)c(Nc2cc(OCC(F)(F)F)ccc2C)nc1=O` [Compound I-0494] and `COc1cn(Cc2cc(F)cc(F)c2)c(Nc2cc(OCC(F)(F)F)ccc2C)nc1=O` [Compound I-0496] fall in the same range of IC50: 10 to 100 nM for the first, 10 to 100 nM for the second.

`COc1ccc(C)c(Nc2nc(=O)c(OC)cn2Cc2cc(F)cc(Cl)c2)c1` [Compound I-0409] and `COc1cn(Cc2ccc(F)c(Cl)c2)c(Nc2cc(SC(F)(F)F)ccc2C)nc1=O` [Compound I-0546] fall in the same range of IC50: 10 to 100 nM for the first, 10 to 100 nM for the second.

Same assay, conditions: antagonistic activity for the human P2X7 receptor; read-out: IC50

`COc1cc(C)c(Nc2nc(=O)c(CO)nn2Cc2cc(F)c(F)c(F)c2)cc1OC` [Compound I-1256] and `COc1cc(Cl)c(Nc2nc(=O)c(C)cn2Cc2cc(F)c(F)c(F)c2)cc1OC` [Compound I-1139] fall in the same range of IC50: 10 to 100 nM for the first, 10 to 100 nM for the second.

`COc1cn(Cc2cc(F)cc(Cl)c2)c(Nc2cccc3c(=O)n(C)ccc23)nc1=O` [Compound I-0904] and `COc1cn(Cc2cc(F)cc(Cl)c2)c(Nc2cccc(SC)c2C)nc1=O` [Compound I-0682] fall in the same range of IC50: 10 to 100 nM for the first, 10 to 100 nM for the second.

`Cc1cc(Nc2nc(=O)c(F)cn2Cc2cc(F)cc(F)c2)c(Cl)cc1F` [Compound I-1224] and `Cc1cc(N(C)C)ccc1Nc1nc(=O)c(F)cn1Cc1cc(F)cc(F)c1` [Compound I-1241] cannot be ordered by IC50: less than 10 nM for the first, less than 10 nM for the second.

First: Cc1ccc(-c2ncco2)cc1Nc1nc(=O)c(F)cn1Cc1cc(F)cc(F)c1 [Compound I-0851]
Second: CCOc1ccc(C)c(Nc2nc(=O)c(F)cn2Cc2cc(F)cc(F)c2)c1 [Compound I-1002]
The IC50 of the first is lower: less than 10 nM for the first, 10 to 100 nM for the second. The first is the more potent here.

Compared with `COc1ccc(Nc2nc(=O)cnn2Cc2ccccc2)c(C)c1` [Compound I-1276], `COc1ccc(C)c(Nc2nc(=O)cnn2Cc2cc(F)c(F)c(F)c2)c1` [Compound I-1282] is lower in IC50: 10 to 100 nM for the first, less than 10 nM for the second. The second is the more potent here.

First: COc1cn(Cc2cc(F)cc(F)c2)c(Nc2cc(-c3cccnc3)ccc2C)nc1=O [Compound I-0766]
Second: COc1cn(Cc2cc(F)cc(F)c2)c(Nc2cc(C(C)(C)O)ccc2C)nc1=O [Compound I-0785]
The IC50 of the first is lower: less than 10 nM for the first, 10 to 100 nM for the second.

`C=C1C(c2cc(Nc3nc(=O)c(F)cn3Cc3cc(F)c(F)c(F)c3)c(C)cc2F)=CC=CN1C` [Compound I-1222] and `Cc1cc(C)c(Nc2nc(=O)c(F)cn2Cc2cc(F)c(F)c(F)c2)cc1F` [Compound I-1238] cannot be ordered by IC50: less than 10 nM for the first, less than 10 nM for the second.

`Cc1nc2cc(C)c(Nc3nc(=O)c(F)cn3Cc3ccc(F)c(Cl)c3)cc2s1` [Compound I-0778] and `Cc1nc2cc(C)c(Nc3nc(=O)c(F)cn3Cc3ccc(F)c(F)c3)cc2s1` [Compound I-1010] cannot be ordered by IC50: less than 10 nM for the first, less than 10 nM for the second.

`COc1cn(Cc2cc(F)cc(Cl)c2)c(Nc2ccc(OC(F)(F)F)cc2C)nc1=O` [Compound I-0609] and `COc1cn(Cc2cc(F)cc(Cl)c2)c(Nc2cc(Cl)c(Cl)cc2C)nc1=O` [Compound I-0666] fall in the same range of IC50: 100 to 500 nM for the first, 100 to 500 nM for the second.

First: COCc1cn(Cc2cc(F)c(F)c(F)c2)c(Nc2ccc(OC(F)F)cc2C)nc1=O [Compound I-1124]
Second: COCCOc1cc(Nc2nc(=O)c(F)cn2Cc2cc(F)c(F)c(F)c2)c(C)cc1F [Compound I-1204]
The IC50 of the first is higher: 10 to 100 nM for the first, less than 10 nM for the second.

First: CCOc1cn(Cc2ccc(F)c(Cl)c2)c(Nc2cc(OC)c(OC)cc2CC)nc1=O [Compound I-0909]
Second: CCc1cc(F)c(OC)cc1Nc1nc(=O)c(OC)cn1Cc1ccc(F)c(F)c1 [Compound I-0815]
The IC50 of the first is higher: 10 to 100 nM for the first, less than 10 nM for the second. The second is the more potent here.

`COc1cn(Cc2ccc(F)c(F)c2)c(Nc2cc(-c3ncco3)ccc2C)nc1=O` [Compound I-0604] and `COc1cn(Cc2ccc(F)c(Cl)c2)c(Nc2ccc3occc3c2C)nc1=O` [Compound I-0799] cannot be ordered by IC50: less than 10 nM for the first, less than 10 nM for the second.

`COc1cc(C)c(Nc2nc(=O)c(C)c(C)n2Cc2cc(F)cc(F)c2)cc1OC` [Compound I-1135] and `COCc1cc(=O)nc(Nc2cc(OC)c(OC)cc2C)n1Cc1cc(F)cc(F)c1` [Compound I-1142] fall in the same range of IC50: 10 to 100 nM for the first, 10 to 100 nM for the second.

First: CCOc1cc(C)c(Nc2nc(=O)c(F)cn2Cc2ccc(F)c(F)c2)cc1F [Compound I-1062]
Second: CCOc1cc(C)c(Nc2nc(=O)c(F)cn2Cc2cc(F)c(F)c(F)c2)cc1C [Compound I-1201]
The IC50 of the first is higher: 10 to 100 nM for the first, less than 10 nM for the second.

`Cc1cc2[nH]ccc2cc1Nc1nc(=O)c(F)cn1Cc1cc(F)c(F)c(F)c1` [Compound I-1045] and `COc1cn(Cc2cc(F)c(F)c(F)c2)c(Nc2cc(C)c(F)cc2C)nc1=O` [Compound I-0712] cannot be ordered by IC50: less than 10 nM for the first, less than 10 nM for the second.

Compared with `COc1cc(Cl)c(Nc2nc(=O)c(F)cn2Cc2cc(F)c(F)c(F)c2)cc1OC` [Compound I-1187], `Cc1ccc(OCCO)cc1Nc1nc(=O)c(C)cn1Cc1cc(F)c(F)c(F)c1` [Compound I-1145] is higher in IC50: less than 10 nM for the first, 10 to 100 nM for the second. The first is the more potent here.

Compared with `COc1cc(Nc2nc(=O)c(OC)cn2Cc2ccccc2)c(C)cc1C` [Compound I-0585], `COc1cn(Cc2ccccc2)c(Nc2cc(C)c(OCC(F)(F)F)cc2C)nc1=O` [Compound I-0800] is higher in IC50: less than 10 nM for the first, 10 to 100 nM for the second. The first is the more potent here.

First: COc1cn(Cc2cc(F)cc(Cl)c2)c(Nc2cc(N3CCCC3=O)ccc2C)nc1=O [Compound I-0647]
Second: CCOc1cc(Nc2nc(=O)c(OC)cn2Cc2cc(F)cc(Cl)c2)c(C)cc1C [Compound I-0789]
The IC50 of the first is higher: 10 to 100 nM for the first, less than 10 nM for the second.

`CCOc1cn(Cc2ccccc2)c(Nc2cc(C)cc(OC)c2C)nc1=O` [Compound I-0717] and `COc1cn(Cc2cc(F)cc(F)c2)c(Nc2cc3[nH]ccc3cc2C)nc1=O` [Compound I-0620] cannot be ordered by IC50: less than 10 nM for the first, less than 10 nM for the second.

First: COc1cn(Cc2ccc(F)c(Cl)c2)c(Nc2cc3c(cc2C)OCCC3=O)nc1=O [Compound I-0930]
Second: COCc1ccc(C)c(Nc2nc(=O)c(F)cn2Cc2cc(F)cc(F)c2)c1 [Compound I-0996]
The IC50 of the first is higher: 100 to 500 nM for the first, 10 to 100 nM for the second.
